In patent US12043644B2, “Benzimidazole derivatives, preparation method thereof and use thereof as anti-cancer agent or anti-virus agent comprising the same” (BIOMETRIX TECHNOLOGY INC, priority 2020, dated 2024):

What was measured:
[1] = test system: normal lung cell line MRC-5 and the normal colon CCD-18Co cell line; test: Toxicity test in normal cell line (WST-8 cell viability); assay type: cell-based; conditions: grade evaluated in comparison with doxorubicin, MRC-5 and CCD-18Co, 0-100 μm, 7 concentrations, 72 hours
Method: The normal lung cell line MRC-5 and the normal colon CCD-18Co cell line were furnished from Korea Cell Line Bank (KCLB, Seoul, Korea) and cultured in culture medium. In a humidified cell culture incubator containing 5% CO2 at 37° C. using DMEM, 10% culture flask, fetal bovine serum (FBS), 0.1 mM MEM non-essential amino acids (NEAA), 2 mM L-glutamine, and 1% penicillin-streptomycin were treated with trypsin every 2-3 days according to the guidelines provided by KCLB, and the cells were sub-cultured. The culture was cultured until it reached 80-90% confluence, and the cells were continuously transferred to a culture flask for a cancer cell line growth inhibition experiment. Normal cell lines (MRC-5 and CCD-18Co) were seeded in about 10000 cells per well in a 96-well plate. After 24 hours, the three compounds shown in Table 1 below were added to each well at 7 concentrations, and incubated for 72 hours. The cell viability and analysis in the normal cell line were performed in the same manner as in Test Example 1, and the results of the toxicity test (72 hours) in the normal cell line are shown in FIG. 4.

[2] = test system: human lung cancer cell line A549, cervical cancer cell line Hela, and colorectal cancer cell line HT-29; test: Cancer cell line growth inhibition test (WST-8 cell viability); assay type: cell-based; conditions: grade evaluated in comparison with doxorubicin, 0-100 μm, 7 concentrations, incubated for 72 hours
Method: Human lung cancer cell line A549, cervical cancer cell line Hela, and colorectal cancer cell line HT-29 were furnished from Korea Cell Line Bank (KCLB, Seoul, Korea) and cultured in culture medium. In a humidified cell culture incubator containing 5% CO2 at 37° C. using DMEM, 10% culture flask, fetal bovine serum (FBS), 0.1 mM MEM non-essential amino acids (NEAA), 2 mM L-glutamine, and 1% penicillin-streptomycin were treated with trypsin every 2-3 days according to the guidelines provided by KCLB, and the cells were sub-cultured. The culture was cultured until it reached 80-90% confluence, and the cells were continuously transferred to a culture flask for a cancer cell line growth inhibition experiment. Cancer cell lines to be tested (human lung cancer cell line A549, cervical cancer cell line Hela, and colorectal cancer cell line HT-29) were seeded in about 10000 cells per well in a 96-well plate. […] After incubation, the medium was discarded and the cell viability was measured in each well using a WST-8 cell viability assay kit (Quanti-Max™, BIOMAX) according to the procedure instructed by the manufacturer. The analysis utilized the principle that the dehydrogenase in living cells decomposes tetrazolium salts to produce formazan, through which living cells were quantitatively evaluated. […]

SMILES | Normal cell line growth inhibition test [1] | Normal cell line growth inhibition test ([1]; listed as aminophenbendazole) | Cancer cell line growth inhibition test [2] | Cancer cell line growth inhibition test ([2]; listed as phenbendazole-glucose conjugate)
Cl.Nc1nc2ccc(Sc3ccccc3)cc2[nH]1 [Aminophenbendazole, reference compound] | A A A | AAA | – | –
OC[C@H]1OC(Nc2nc3ccc(Sc4ccccc4)cc3[nH]2)[C@H](O)[C@@H](O)[C@@H]1O (stereo partly shown) [Phenhendazole-glucose conjugate, 6-(phenylthio)-1H-benzoimidazol-2-aminoglucose] | – | – | A A A | AAA
